Test [1] deals with gelatinase. Kind of test: Gelatinase inhibitory activity (EnzChek Gelatinase/Collagenase Assay Kit, DQ gelatin). Type of test: biochemical. On the procedure:
Gelatinase is an enzyme which plays a major role in promoting skin aging by more finely degrading collagen fragments digested by MMP-1 with MMP-2, and wrinkle reduction activity was determined by measuring the inhibitory activity of the enzyme.
(§1) Gelatinase inhibitory activity was performed by purchasing EnzChek® Gelatinase/Collagenase Assay Kit (250-2000 Assays) reagent from Invitrogen. First, DQ gelatin stock solution (1 mg/ml) was prepared by adding 1.0 ml of DDW to 1 mg DQ gelatin vial. The 18 ml of DDW was added to 2 ml of 10× reaction buffer, so as to dilute reaction buffer. Then, a gelatinase enzyme reagent was prepared, and diluted with reaction buffer to a final concentration of 0.2 U/ml as working solution. Three samples of 50 ? each were prepared in a 96-well plate. The 30 ? of reaction buffer was added to 20 ? of DQ gelatin and sample blank, and 30 ? of working solution was added to a sample, which were then left in a light-blocked state at room temperature for about one to two hours, and then fluorescence intensity was measured at excitation wavelength 485 nm and 535 nm using ELISA plate reader (VICTOR X3™, PerkinElmer, US).

Test [2] has as its system collagenase. In words: Collagenase inhibitory activity (EnzChek Gelatinase/Collagenase Assay Kit, DQ collagen). Type of test: biochemical. The procedure: as §1, with “Collagenase inhibitory activity” for “Gelatinase inhibitory activity”, “First, DQ collagen stock solution” for “First, DQ gelatin stock solution”, “mg DQ collagen vial. The” for “mg DQ gelatin vial. The”, “Then, a collagenase enzyme reagent” for “Then, a gelatinase enzyme reagent”, “of DQ collagen and sample” for “of DQ gelatin and sample”, “nm and emission wavelength 535 nm” for “nm and 535 nm”
As a positive control, copper peptide (Comparative Example 12), which is a representative peptide widely used as a raw material for functional cosmetics, was prepared at the same concentration and used. Copper peptide has excellent skin regeneration ability and thus is used as a raw material to suppress skin aging by promoting wound healing, strengthening skin elasticity, and increasing subcutaneous fat layers.

`NC(=O)C[C@H](NC(=O)CNC(=O)[C@@H]1CCCN1)C(=O)O` [PGN, Pro-Gly-Asn, reference compound]: the Gelatinase inhibitory activity turned out to be 1.5 ± 5.5% in test [1] (0.2 mg/ml), 9.8 ± 0.8% in test [1] (0.3 mg/ml), 63.1 ± 2.1% in test [1] (0.4 mg/ml) and 80.5 ± 1.2% in test [1] (0.5 mg/ml). For the same compound, the Collagenase inhibitory activity came to 1.6 ± 3.3% in test [2] (0.05 mg/ml), 4.7 ± 3.9% in test [2] (0.1 mg/ml), 11.2 ± 6.2% in test [2] (0.5 mg/ml) and 13.1% in test [2] (1 mg/ml). The “collagenase inhibitory activity IC50” value in test [2] (FIGS. 5 and 6) is 1577 µg/mL.
